The test system of experiment [1] is A2 reactive astrocytes. Description: A2 reactive astrocyte attachment on PDMS coated plates (targeted drug delivery). Particulars: 30 ng/ml, 48 h; FIG. 5B. The experiment is classed as cell-based, mouse.
Experiment [2] concerns A1 reactive astrocytes. The experiment in a line: A1 reactive astrocyte attachment on PDMS coated plates (targeted drug delivery). The experiment is classed as cell-based, mouse. Particulars: 30 ng/ml, 48 h. Here is the method:
Purification of astrocytes by immunopanning: Astrocytes were purified by immunopanning from post-natal day (P) 5 mouse brains and cultured as previously described (Foo et al., Neuron. 71(5):799-811, 2011). Cerebral cortices were dissected and enzymatically digested using papain at 37° C. and 10% CO2. Tissue was then mechanically triturated with a serological pipette at RT to generate a single-cell suspension. The suspension was filtered and negatively panned for microglia/macrophage cells (CD45), oligodendrocyte progenitor cells (04 hybridoma), and endothelial cells (L1) followed by positive panning for astrocyte cells (ITGB5). Astrocytes were cultured in defined, serum-free medium containing 50% neurobasal, 50% DMEM, 100 U/mL penicillin, 100 μg/mL streptomycin, 1 mM sodium pyruvate, 292 μg/mL L-glutamine, 1×SATO, 5 μg/mL of N-acetyl cysteine, and 5 ng/mL HBEGF.
Targeted drug delivery: A1 reactive astrocytes were generated by culturing the purified astrocytes on PDMS coated tissue culture plates and then treating for 24 h with IL-1α (3 ng/ml, Sigma, 13901), TNF-α (30 ng/ml, Cell Signaling Technology, 8902SF), and C1q (400 ng/ml, MyBioSource, MBS143105). […]

Regarding TGF-β, the “attachment of A2 astrocytes on PDMS coated surfaces” value in experiment [1] is “did not induce”. The “A1 astrocyte reactive state” value in experiment [2] is “reset A1 astrocytes to a non-reactive state”. For the same substance, the “attachment of A1 astrocytes on PDMS coated surfaces” value in experiment [2] (FIG. 5A) is “significantly reducing”.

For the origin of these results see US20240374879A1, “METHODS AND COMPOSITIONS TO REDUCE CELLULAR DEPOSITION, AND HYDROCEPHALUS SHUNT FAILURE” (Wayne State University, priority 2021, published 2024).
